Experimental findings from ChEMBL document CHEMBL1201862, “PubChem BioAssay data set” (2004) are described below.

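Method: 48-hour compound exposure of cells in 96-well plates, five concentrations, linear interpolation of endpoints. The concentration for 50% growth inhibition is given as GI50.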 Activity calls are given as the source filed them. No stated cut-off is given here; in the data, active = GI50 up to about 1.1 µM and inactive = higher. Bounds are passed on as bounds.

Test in all cases: growth of human tumour cells (NCI), 48 h
For experiment [1], the system named is EKVX.
Experiment [2] relates to DU-145.
In experiment [3] the test system is HCT-15.
In experiment [4] the test system is Hs-578T.
Experiment [5] has as its system MDA-MB-231.
Experiment [6] concerns LOX IMVI.
For experiment [7], the system named is MOLT-4.
Experiment [8] has as its system SNB-19.
Experiment [9] has as its system SR.
Experiment [10] concerns SK-MEL-28.
Experiment [11] deals with OVCAR-8.
The subject of experiment [12] is RPMI-8226.
For experiment [13], the system named is PC-3.
Experiment [14] deals with NCI-H23.
Experiment [15] concerns HL-60.
Experiment [16] concerns 786-0.
The test system of experiment [17] is NCI-H522.
For experiment [18], the system named is Malme-3M.
Experiment [19] relates to NCI-H460.
For experiment [20], the system named is HOP-92.

For `CC(NC(=O)C1(N)CCCC1)C(=O)O` (configuration not stated), the GI50 in [1] is > 100 µM (inactive); in experiment [2], > 100 µM (inactive); in experiment [3] it was above 100 µM; in experiment [4], > 100 µM (inactive); in [5], > 100 µM (inactive); in [6] it was > 100 µM (inactive). Moreover, the GI50 in experiment [7], in [8], in experiment [9], in experiment [10], in experiment [11] and in [12] was > 100 µM (inactive) in each case. Besides, the GI50 in [13], in experiment [14], in experiment [15], in experiment [16], in [17] and in experiment [18] was > 100 µM (inactive) in each case.
Take `Nc1ncnc2c1ccn2C/C=C/CO`: the GI50 was > 100 µM (inactive) in experiment [1]; > 100 µM (inactive) in experiment [2]; above 100 µM in experiment [3]; > 100 µM (inactive) in experiment [4]; > 100 µM (inactive) in experiment [5]; > 100 µM (inactive) in experiment [6]. Moreover, the GI50 in [7], in [8], in experiment [19], in experiment [10], in [11] and in experiment [12] was > 100 µM (inactive) in each case. Also, the GI50 in experiment [13], in experiment [14], in experiment [15], in [16], in experiment [17] and in [18] was > 100 µM (inactive) each time. Besides, the GI50 in experiment [20] is > 100 µM (inactive).
On to `CN1C=Cc2nccc3cc4c(c1c23)OCO4`, for which the GI50 in experiment [1] was 1.85 µM (inactive); in experiment [2], 5.78 µM (inactive); in experiment [3] it was 7.59 µM; in experiment [4] it was 13.5 µM (inactive); in experiment [5], 3.08 µM (inactive); in experiment [6], 6.25 µM (inactive). The GI50 in experiment [7] was 0.647 µM (active); in experiment [8] it was 1.87 µM (inactive); in experiment [9], 0.495 µM (active); in [19] it was 0.422 µM (active); in experiment [10], 4.83 µM (inactive); in [11], 5.68 µM (inactive). The GI50 was 1.04 µM (active) in experiment [12]; 3.21 µM (inactive) in experiment [13]; 2.1 µM (inactive) in [14]; > 20.3 µM (inactive) in experiment [15]; 1.61 µM (inactive) in experiment [16]; 0.776 µM (active) in [17]. Moreover, the GI50 in [18] was 0.118 µM (active).
As to `COc1ccc(OCC(=N/NC(=O)c2ccncc2)/N=C/c2cccnc2)cc1`, the GI50 is > 100 µM (inactive) in experiment [1]; > 100 µM (inactive) in experiment [2]; 60.7 µM in experiment [3]; 57.9 µM (inactive) in [4]; > 100 µM (inactive) in [5]; 89.7 µM (inactive) in experiment [6]. For the same molecule, the GI50 in [7] was 69.8 µM (inactive); in [8], > 100 µM (inactive); in experiment [19], > 100 µM (inactive); in [10], 94.8 µM (inactive); in [11], > 100 µM (inactive); in [12] it was 67.6 µM (inactive). The GI50 in experiment [13] was > 100 µM (inactive); in experiment [14] it was > 100 µM (inactive); in [15], > 100 µM (inactive); in experiment [16] it was > 100 µM (inactive); in [17] it was 13.1 µM (inactive); in [18] it was 43.6 µM (inactive).
On to `Cc1cccc(/C=N/NC(=S)N2CCCCCC2)n1`, for which the GI50 is 0.288 µM (active) in experiment [1]; 0.254 µM (active) in experiment [2]; 0.049 µM in experiment [3]; 9.59 µM (inactive) in [4]; < 0.01 µM (active) in experiment [5]; 0.0989 µM (active) in experiment [6]. Besides, the GI50 in experiment [7] is < 0.01 µM (active); in [8] it was 0.543 µM (active); in [19], 0.0977 µM (active); in [10], 0.608 µM (active); in experiment [11] it was 0.0142 µM (active); in experiment [12], < 0.01 µM (active). Further, the GI50 is < 0.0166 µM (active) in [13]; 0.299 µM (active) in experiment [14]; < 0.01 µM (active) in [15]; 0.0724 µM (active) in [16]; < 0.01 µM (active) in experiment [17]; 0.313 µM (active) in experiment [18]. In addition, the GI50 in experiment [20] is 0.519 µM (active).
For `O=C(/C=C\c1ccccc1)Oc1ccc(/C=C2\CCCCC2=O)cc1`, the GI50 in experiment [1] is 57.1 µM (inactive); in experiment [2], > 100 µM (inactive); in experiment [3], 23.3 µM; in experiment [4] it was 61 µM (inactive); in [5], 41.6 µM (inactive); in [6], 60.4 µM (inactive). For the same molecule, the GI50 in experiment [7] is 0.955 µM (active); in experiment [8] it was > 100 µM (inactive); in experiment [19], 73.5 µM (inactive); in experiment [10] it was 2.18 µM (inactive); in experiment [11], 37.8 µM (inactive); in experiment [12], 21.5 µM (inactive). Besides, the GI50 in experiment [13] is 46.9 µM (inactive); in experiment [14], 45.8 µM (inactive); in experiment [15], 14.9 µM (inactive); in experiment [16] it was 37.4 µM (inactive); in [17], 48 µM (inactive); in experiment [18], 38.9 µM (inactive). Further, the GI50 in experiment [20] was 69 µM (inactive).
Regarding `O=[As](O)(O)c1ccc(/N=N/c2ccc(O)cc2)cc1`, the GI50 in experiment [1] was > 100 µM (inactive); in experiment [2], > 100 µM (inactive); in experiment [3], above 100 µM; in [4], > 100 µM (inactive); in experiment [5], > 100 µM (inactive); in [6] it was > 100 µM (inactive). The GI50 in [7] was 4.32 µM (inactive); in experiment [8], > 100 µM (inactive); in [19], > 100 µM (inactive); in experiment [10], > 100 µM (inactive); in experiment [11], > 100 µM (inactive); in [12], > 100 µM (inactive). Besides, the GI50 in experiment [13], in experiment [14], in experiment [15], in [16], in experiment [17] and in experiment [18] was > 100 µM (inactive) throughout. Also, in experiment [20], the GI50 is > 100 µM (inactive).
Turning to `COc1ccc(-c2coc3cc(O)ccc3c2=O)cc1` [FORMONONETIN], the GI50 in experiment [2] was > 100 µM (inactive); in [3], above 100 µM; in experiment [4], > 100 µM (inactive); in experiment [5], 11.3 µM (inactive); in experiment [7] it was > 100 µM (inactive); in experiment [8], > 100 µM (inactive). The GI50 in [9], in experiment [19], in experiment [10], in [11], in [13] and in [14] was > 100 µM (inactive) in each case. In addition, the GI50 in experiment [15], in [16], in experiment [17] and in [18] was > 100 µM (inactive) throughout.
Take `CC1=C(O)C(=O)C[C@]2(C)[C@H]3CC=C4[C@@H]5CC(C)(C)CC[C@@H]5C(=O)[C@H](O)[C@@]4(C)[C@]3(C)CC[C@@H]12`: the GI50 in experiment [1] is > 50 µM (inactive); in [2] it was > 50 µM (inactive); in experiment [3], above 50 µM; in experiment [4], 25.1 µM (inactive); in [5], > 50 µM (inactive); in experiment [7] it was > 50 µM (inactive). Also, the GI50 in [8] is > 50 µM (inactive); in [19] it was > 50 µM (inactive); in experiment [10] it was > 50 µM (inactive); in experiment [11] it was 22.6 µM (inactive); in experiment [12] it was 42.5 µM (inactive); in experiment [13], 16.7 µM (inactive). Further, the GI50 was > 50 µM (inactive) in experiment [14]; > 50 µM (inactive) in experiment [15]; 19.1 µM (inactive) in experiment [16]; 16.6 µM (inactive) in experiment [17]; > 50 µM (inactive) in experiment [18]; 7.36 µM (inactive) in experiment [20].
Take `O=C(c1ccc(Cl)cc1)N(C(=S)OCCOc1ccccc1)c1ccccc1`: the GI50 in experiment [1] was 20.1 µM (inactive); in experiment [2] it was 17.3 µM (inactive); in experiment [3], 19.3 µM; in [4], 46.9 µM (inactive); in experiment [5], 23.1 µM (inactive); in experiment [6], 17.4 µM (inactive). Besides, the GI50 was 22.4 µM (inactive) in experiment [7]; 19.2 µM (inactive) in experiment [8]; 23.2 µM (inactive) in experiment [19]; 15.8 µM (inactive) in [10]; 20.3 µM (inactive) in [11]; 18.1 µM (inactive) in experiment [12]. Moreover, the GI50 in experiment [13] is 21.1 µM (inactive); in experiment [14], 18.1 µM (inactive); in experiment [15] it was 18.6 µM (inactive); in experiment [16], 18.7 µM (inactive); in experiment [17], 19.1 µM (inactive); in experiment [18] it was 29 µM (inactive). Also, the GI50 in experiment [20] is 3.34 µM (inactive).
For the molecule `C=C1OC(c2ccccc2NC)=NC12CCCCC2`, the GI50 in experiment [1] was > 100 µM (inactive); in [2] it was > 100 µM (inactive); in experiment [3], above 100 µM; in experiment [4] it was > 100 µM (inactive); in experiment [5], > 100 µM (inactive); in experiment [6], > 100 µM (inactive). In addition, the GI50 in experiment [7], in experiment [8], in experiment [19], in [10], in [11] and in [13] was > 100 µM (inactive) in each case. The GI50 in experiment [14], in experiment [15], in experiment [16], in experiment [17], in experiment [18] and in experiment [20] was > 100 µM (inactive) in each case.
